# Data as given in paper PMC6033896, “Discovery of Mcl-1 inhibitors from integrated high throughput and virtual screening” (Scientific Reports, 2018).
# Columns and labels:
# Mcl-1 protein [1] = target: T1, Mcl-1 protein (Homo sapiens, UniProt Q07820); test: FP-based competitive binding assay with fluorescent labelled Bid BH3 peptide; details: competition with fluorescent Bid probe 2 nM, 20 nM Mcl-1 for purchased compounds, 10 nM for synthesized library
# T1 construct: human Mcl-1 (residues 171–323); His tag (pHis-TEV vector) (N, cleaved yes); made in house; host or cells: E. coli BL21 (DE3)
# T1 sequence (Q07820 171-323): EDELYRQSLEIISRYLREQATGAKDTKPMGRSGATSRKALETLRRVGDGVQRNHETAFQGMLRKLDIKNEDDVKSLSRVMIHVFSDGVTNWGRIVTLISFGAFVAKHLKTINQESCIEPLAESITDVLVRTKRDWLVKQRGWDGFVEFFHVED
# Experimental: (§1) FP-based binding assays were developed and optimized to determine the binding affinities of inhibitors to the recombinant Mcl-1, Bcl-2, Bcl-xL, and Bfl-1, proteins. […] The fluorescent Bid probe was fixed at 2 nM for all assays, except for Bfl-1, where 1 nM was used. 5 μL of the tested compound in DMSO and 120 μL of protein/probe complex in the assay buffer were added to assay plates (Corning #3792), incubated at room temperature for 3 h, and the polarization values (mP) were measured at an excitation wavelength of 485 nm and an emission wavelength of 530 nm using the plate reader Synergy H1 Hybrid, BioTek. IC50 values were determined by nonlinear regression fitting of the competition curves (GraphPad Prism 6.0 Software). The Ki values were calculated as described previously.
# (§2) 1. List of compounds purchased from vendors
# (§3) Compound s 5, 6, 7, 8 and S3, S4, S5, S6 S7, S8, S9, S10, S17 were purchased from […]
# (§4) Compound s 9, 10, 11 and S11, S12, S13 were purchased from I nterbioscreen […]
# His-tagged proteins containing human Mcl-1 (residues 171–323), the isoform 2 construct of the human Bcl-2 [Bcl2-2 construct for protein production starts with the Bcl2 sequence of 1-34 a a, followed by the Bcl-xL seq uence of 35-50 aa, and ends with the Bcl-2 sequenc e of 92-202aa.], Bcl-xL (Human Bcl-xL protein, which has an internal deletion for the 45 -85 amino acid residues and a C -terminal truncation for the amino acid residues 212-233), and Bf l-1 (residues 1-151), were expres sed from the pHis -TEV vector (a modified pET vector) in E. coli BL21 (DE3) cells. Cells were grown at 37 °C in 2×YT containing antibiotics to an OD600 density of 1.5, 1 and 0.8 for Mcl-1, Bcl-xL and Bcl-2 respectively. Protein expression wa s induced by 0 .4 mM IPTG at 20 °C overnight for all proteins except for Bf l-1 which was e xpressed at 3 7 °C for four hours . Cells were lysed in 20 mM HEPES pH 7.5, 200 mM NaCl, 0.1% βME with Leupeptin/Aprotinin (Mcl-1), 25mM Tris pH 8.5, 200mM NaCl (Bcl-2), 50mM Tris pH 7.5, 200 mM NaCl (Bcl-xL) and 50 mM Tris pH 8, 500 mM NaCl, 0. 1% βME with Leupeptin/Aprotinin (Bf l-1). All […]
# proteins were purified from the soluble fraction using Ni-NTA resin (QIAGEN), following the manufacturer’s instructions. For purification of TEV-cleaved protein, the amino-terminal His tag was cleaved by incubation with TEV protease and the protein was further purified by anion exchange (Source Q) and gel filtration chromatography (Superdex 75, Amersham Biosciences) in 20mM HEPES pH 7.0, 50 mM NaCl (Mcl-1), […]
# NaCl, 0.1% βME (Bcl-xL) and 25 mM Tris pH 7.5, 150 mM NaCl, 25% Glycerol, 0.1% βME ( Bf l-1). His-tagged Mcl-1 protein was used for TR-FRET assay and HSQC-NMR.
# His-TEV cleaved Mcl-1, Bcl-2, Bcl-xL, and Bf l-1 were used in fluorescent polarization and surface plasmon resonance binding assays.
# Mutant Mcl-1 protein wa s prepared by the QuikChange site -directed mutagenesi s method (Stratagene) , where Arg263 was mutated to Ala. The R263A expression pla smid was transformed into Rosetta2 DE3 cells and purified by the same method as the wildtype protein. Cultures were grown to an OD 600 of 1. 5 at 37 °C in Terrific Broth, induced with 0. 4 mM IPTG, and express ed overnight at 20 °C. The follow-up purification was performed the same way as was for Mcl-1 wild-type recombinant
# Mcl-1 protein [2] = target: T1, Mcl-1 protein; test: SPR-based solution competitive binding assay, immobilized biotin-labelled Bim BH3 peptide; details: Mcl-1 20 nM; competition with immobilized Bim BH3 peptide
# Experimental: The solution competitive SPR-based assay was performed on Biacore 2000 in a similar way as was already reported. Briefly, N terminal biotin-labelled Bim BH3 peptide (141–166 amino acids) was immobilized on streptavidin (SA) chip giving a density of 800 RU (Response Units). The pre-incubated Mcl-1 protein (20 nM) with tested small-molecule inhibitors for at least 30 min was injected over the surfaces of the chip using assay buffer HBS-P (GE, #BR100368). Response units were measured at 15 s in the dissociation phase, and IC50 values were determined by nonlinear least-squares analysis using GraphPad Prism 6.0 software.
# Mcl-1/Noxa interaction = test system: Mcl-1/Noxa interaction; design: method as in PubChem BioAssay AID 1417; details: Dose Response Confirmation for Mcl-1/Noxa Interaction Inhibitors; ref PubChem BioAssay AID 1417; cited from earlier work
# [3] = test system: Bak−/− single knockout MEFs; test: MEF cell death, propidium iodide flow cytometry; format: cell-based, mouse; details: increasing concentrations, 15 h
# Experimental: (§5) MEF cells, including wild-type, Bax/Bak double knockout, Bax−/− single knockout, and Bak−/− single knockout were tested and characterized (Supplementary Fig. S3). The cells were cultured in DMEM (Life Technologies), supplemented with 10% fetal bovine serum (FBS) (Thermo Scientific HyClone) and 1% Penicillin/streptomycin solution (Life Technologies). The retrovirally transduced lymphoma cells isolated from Eμ-myc transgenic mice were provided by Ricky W. Johnstone at the University of Melbourne, Melbourne, Australia and cultured as previously described[37],[65].
# (§6) MEFs were seeded in 24-well plates at 0.5 × 10^5 cells/well, left to adhere for 5 hours and then treated for 15 hours with increasing concentrations of the compounds. The cells were harvested, washed with phosphate-buffered saline (PBS) and stained with 0.025 mg/ml propidium iodide (MP Biomedicals). The percentage of the propidium iodide positive population was determined by flow cytometry and calculated using WinList 3.0.
# [4] = test system: Bax/Bak double knockout (DKO) MEFs; test: MEF cell death, propidium iodide flow cytometry; format: cell-based, mouse; details: increasing concentrations, 15 h
# Experimental: as §5, §6
# [5] = test system: Bax−/− single knockout MEFs; test: MEF cell death, propidium iodide flow cytometry; format: cell-based, mouse; details: increasing concentrations, 15 h
# Experimental: as §5, §6
# wild-type MEFs = test: MEF cell death, propidium iodide flow cytometry; format: cell-based, mouse; details: increasing concentrations, 15 h
# Experimental: as §5, §6
# [6] = test system: Eµ-myc lymphoma cells overexpressing Bcl-2; test: Eµ-myc lymphoma cell viability, flow cytometry; format: cell-based, mice; details: increasing concentrations
# Experimental: as §5
# (§7) The Mcl-1, Bcl-2, and Bcl-xL retroviral transduced lymphoma Eμ-myc cells were seeded in 12-well plates at 0.5 × 10^6 cells/well. […] The cells were harvested and stained with violet LIVE/DEAD Fixable Dead Cell Stain Kit (Invitrogen) according to manufacturer’s protocol. The percentage of fluorescent positive cells was determined by flow cytometry and calculated using WinList 3.0.
# [7] = test system: Eµ-myc lymphoma cells overexpressing Bcl-xL; test: Eµ-myc lymphoma cell viability, flow cytometry; format: cell-based, mice; details: increasing concentrations, 15 h
# Experimental: as §5, §7
# [8] = test system: Eµ-myc lymphoma cells overexpressing Mcl-1; test: Eµ-myc lymphoma cell viability, flow cytometry; format: cell-based, mice; details: increasing concentrations, 15 h
# Experimental: as §5, §7
# Bfl-1 = target: T2, Bfl-1 (Homo sapiens, UniProt Q16548); test: FP-based competitive binding assay with FAM-Bid; details: Bfl-1
# T2 construct: Bf l-1 (residues 1-151); His tag (pHis-TEV vector) (N, cleaved yes); made in house; host or cells: E. coli BL21 (DE3)
# T2 sequence (Q16548 1-151): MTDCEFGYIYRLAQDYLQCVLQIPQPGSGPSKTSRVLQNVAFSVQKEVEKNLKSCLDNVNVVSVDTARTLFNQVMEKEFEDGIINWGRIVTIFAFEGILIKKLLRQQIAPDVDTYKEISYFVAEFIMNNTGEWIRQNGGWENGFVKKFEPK
# Experimental: as §1, §2, §3, §4
# His-tagged proteins containing human Mcl-1 (residues 171–323), the isoform 2 construct of the human Bcl-2 [Bcl2-2 construct for protein production starts with the Bcl2 sequence of 1-34 a a, followed by the Bcl-xL seq uence of 35-50 aa, and ends with the Bcl-2 sequenc e of 92-202aa.], Bcl-xL (Human Bcl-xL protein, which has an internal deletion for the 45 -85 amino acid residues and a C -terminal truncation for the amino acid residues 212-233), and Bf l-1 (residues 1-151), were expres sed from the pHis -TEV vector (a modified pET vector) in E. coli BL21 (DE3) cells. Cells were grown at 37 °C in 2×YT containing antibiotics to an OD600 density of 1.5, 1 and 0.8 for Mcl-1, Bcl-xL and Bcl-2 respectively. Protein expression wa s induced by 0 .4 mM IPTG at 20 °C overnight for all proteins except for Bf l-1 which was e xpressed at 3 7 °C for four hours . Cells were lysed in 20 mM HEPES pH 7.5, 200 mM NaCl, 0.1% βME with Leupeptin/Aprotinin (Mcl-1), 25mM Tris pH 8.5, 200mM NaCl (Bcl-2), 50mM Tris pH 7.5, 200 mM NaCl (Bcl-xL) and 50 mM Tris pH 8, 500 mM NaCl, 0. 1% βME with Leupeptin/Aprotinin (Bf l-1). All
SMILES,IC50 (Mcl-1 protein [1]) [µM],IC50 (Mcl-1 protein [2]) [µM],IC50 (Mcl-1/Noxa interaction) [µM],cell death in Bak−/− MEFs [3],cell death in Bax/Bak DKO MEFs [4],cell death in Bax−/− MEFs [5],cell death in wild-type MEFs (wild-type MEFs),effect on Eµ-myc cells overexpressing Bcl-2 [6],effect on Eµ-myc cells overexpressing Bcl-xL [7],killing of Eµ-myc cells overexpressing Mcl-1 [8],IC50 (Bfl-1) [µM]
Cc1ccc2nc(N3C(=O)C(O)=C(C(=O)c4cc5ccccc5o4)C3c3cccs3)sc2c1 (centres unmarked) [Compound 4],2.4 ± 1.1,4.5 ± 0.3,2.4,–,–,–,–,–,–,–,–
"Cc1c(-c2c(-c3ccc(F)o3)sc3ncnc(OC(Cc4ccccc4OCc4ccnn4CC(F)(F)F)C(=O)O)c23)ccc(OCCN2CCN(C)CC2)c1Cl (centres unmarked) [Compound S63845, reference compound]",–,–,–,not,not,not,induces cell death,sparing,sparing,selectively killing,–
CCOc1ccc(C(=O)Nc2cc(NC(=O)c3ccc(OCC)c(Cl)c3)cc(C(=O)O)c2)cc1Cl [Compound 3],9.6 ± 2.5,21.3 ± 5.4,14.3,–,–,–,–,–,–,–,2.5 ± 0.2
